# Tests used:
# [1] = Equilibrium saturation solubility and solubilization efficiency; type: physicochemical; details: distilled water, thermodynamic from solid; pure drug, water at 25° C.; read-out: solubility of VPN in water
# Description: To study the effects of the prepared solid dispersions on the solubility of VPN, the equilibrium solubility was determined as previously reported. (Ahmed et al. Pharm Dev Technol. 2011; 16 (5):497-510). An excess amount of either pure drug or the prepared solid dispersions were added to screw-capped vials containing 10 mL of distilled water. The vials were placed in a thermostatically controlled shaking water bath (Model 1031; GFL Corporation. Burgwedel, Germany) at 25±0.5° C. for 48 h. […] Aliquots withdrawn were filtered through a 0.22 μm pore-size Millipore filter and assayed for drug content using high performance liquid chromatography (HPLC) method Ding et al. Asian J Pharm Sci. 2015; 10:114-120. doi:10.1016/j.ajps.2014.08.008), with slight modifications. An isocratic HPLC method was performed using Agilent 1200 series equipped with UV diode array detector. A reversed phase C18 analytical column (4×250 mm, 5 μm; Thermo Fischer Scientific) was used. The mobile phase was composed of a mixture of methanol and 0.05 ammonium acetate buffer of pH 5.5, 80:20 (v/v). The flow rate of the mobile phase was 1 mL/min, the injection volume was 20 μL and the detection wave length was 273 nm. […]
# The solubility of vinpocetine, in the prepared solid dispersions, was compared to the intrinsic drug solubility and the resulting ratios of solubilization efficiency (solubility enhancement) were calculated. […]
# [2] = Phase solubility study and thermodynamic parameter of solubility in aqueous PVP-VA64 solution; type: physicochemical
# Description: An excess amount of pure VPN was added separately into screw-capped vials containing 10 mL of aqueous polyvinyl pyrrolidone vinyl acetate (PVP-VA64) solution (0-10% w/v). The vials were sealed and shaken in a water bath at 37° C. for 72 h. Aliquots (n=3) from each vial were filtered through a 0.22 μm pore-size Millipore filter, and the filtrates were assayed by HPLC. The change in the solubility of VPN resulting from the addition of different PVP-VA-64 concentrations was used to construct a phase-solubility plot and to evaluate the stoichiometry and the stability constant of complexation (Kst), which exemplifies the strength of the interaction and stability of the complex formed.
# Calculation of the apparent stability constant, Kst, was achieved from the phase solubility diagram according to the equation described by Higuchi and Connors (Adv Anal Chem Instrum. 1965; 4:117-210), based on the assumption that 1:1 complex was initially formed.
# [formula] In the equation, “So” represents the drug solubility in the absence of the studied polymer (the intercept of the phase solubility diagram constructed).
# To evaluate the solubilizing efficiency of the studied polymer for the drug, the complexation efficiency (CE) was determined. It was calculated according to the following equation: CE=So K1:1=slope/(1-slope).
# The Gibbs free energy (ΔG°tr) for the transfer of VPN from pure water to aqueous solutions of PVP-VA-64 was calculated using the following equation: ΔG°tr=−2.303 RT Log (Sc/So) where Sc/So is the ratio of the molar drug solubility in an aqueous solution of PVP-VA-64 to that of pure water. R is the gas rate constant ([…]) and T is the temperature in Kelvin at which the study was conducted. The Gibbs free energy can also be referred to as the thermodynamic potential that is minimized when a system reaches chemical equilibrium from an initial state to a final state at constant pressure and temperature. Dissolution of the Prepared Solid Dispersion
# [3] = In vitro dissolution of the prepared solid dispersion (USP apparatus II); type: physicochemical; details: simulated intestinal fluid pH 6.8, 37° C.
# Description: An in vitro dissolution study of the pure drug and the vinpocetin-PVP-VA64 inclusion complex (equivalent to 5 mg VPN) was performed in triplicate, using the United States Pharmacopeia (USP) dissolution test apparatus II paddle type, DT 700 LH device, Erweka GmbH DT 700 (Heusenstamm, Germany) at 37° C. for 2 h, with a stirring rate of 50 rpm, in 900 mL of enzyme-free simulated intestinal fluid (pH 6.8). Aliquots were collected at 5, 10, 15, 20, 25, 30, 45, 60, 90 and 120 min, with immediate replacement of an equal volume of fluid, and the collected samples were filtered through a 0.22 μm pore-size Millipore filter and assayed for drug content using high performance liquid chromatography (HPLC). From the dissolution profile curve constructed, DP5min, DP30min and DP120min, the percent of drug dissolved within 5, 30 and 120 minutes, respectively, were estimated. Also, the dissolution efficiency within 10 and 120 minutes, (DE10min) and (DE120min), respectively and, the mean dissolution time were calculated. For each formulation, the dissolution efficiency was determined as the percent ratio of area under the dissolution profile curve up to the time, t, to that of the area of the rectangle described by 100% dissolution at the same time.
# [4] = weak basic drug; cited from earlier work
# [5] = background statement; cited from earlier work
smiles,measurement,setting,value
CCOC(=O)C1=C[C@]2(CC)CCCN3CCc4c(n1c1ccccc41)[C@@H]32 [Vinpocetine],solubility at 48 h,[1],2.31 µg/mL
same,ΔG°tr,[2]; 1% polymeric solution (PVP-VA-64),-1.144722 kcal/mol
same,ΔG°tr,[2]; 2% polymeric solution (PVP-VA-64),-1.513035 kcal/mol
same,ΔG°tr,[2]; 3% polymeric solution (PVP-VA-64),-1.766491 kcal/mol
same,ΔG°tr,[2]; 4% polymeric solution (PVP-VA-64),-2.010924 kcal/mol
same,ΔG°tr,[2]; 5% polymeric solution (PVP-VA-64),-2.097426 kcal/mol
same,ΔG°tr,[2]; 6% polymeric solution (PVP-VA-64),-2.189169 kcal/mol
same,ΔG°tr,[2]; 7% polymeric solution (PVP-VA-64),-2.315229 kcal/mol
same,ΔG°tr,[2]; 8% polymeric solution (PVP-VA-64),-2.413399 kcal/mol
same,ΔG°tr,[2]; 9% polymeric solution (PVP-VA-64),-2.456587 kcal/mol
same,ΔG°tr,[2]; 10% polymeric solution (PVP-VA-64),-2.547512 kcal/mol
same,type of complexation (phase solubility profile),[2]; VPN with PVP-VA-64,AP-type complexation
same,complexation efficiency CE,"[2]; VPN with PVP-VA-64, 37° C.",0.0014
same,stability constant Kst,"[2]; VPN with PVP-VA-64, 37° C., 1:1 complex assumed",7 mL/mg
same,"DE120, dissolution efficiency within 120 minutes",[3],18.67±3.73%
same,"DE10min, dissolution efficiency within 10 minutes",[3],0.428±0.159%
same,"DP5min, percent of drug dissolved within 5 minutes",[3]; 50 rpm,5.62±2.45%
same,"DP30min, percent of drug dissolved within 30 minutes",[3]; 50 rpm,16.46±3.58%
same,"DP120min, percent of drug dissolved within 120 minutes",[3]; 50 rpm,22.41±6.04%
same,pKa,[4],7.31
same,elimination half-life,[5],1 to 2 h
same,first pass metabolism (metabolism in liver),[5],75%

# From patent publication US10668020B1, “Pullulan based vinpocetine tablets, lyoplant-tabs, as a buccal solid dosage form” (King Abdulaziz University, priority 2019, dated 2020)
